# Columns and labels:
# Assay type in all cases: cell-based
# [1] = system: MIA-PaCa-2 cells; assay: Anti-proliferative activity in MIA-PaCa-2 cells (CellTiter-Glo); conditions: Homo sapiens, 72 h, MIA-PaCa-2 cells (KRAS G12C), three days, read-out: IC50 (cell viability)
# Experimental: MIA-PaCa-2 cells were treated with KRAS inhibitors at the density of 800 cells/well in 384-well plate for three days. Cell viability was evaluated using CellTiter-Glo® Luminescent Cell Viability Assay.
# [2] = system: downstream signaling (p-ERK) in PANC-1 cells (KRAS G12D); assay: Downstream evaluation in PANC-1 cells (p-ERK immunoblot); conditions: Homo sapiens, 8 h and 24 h, read-out: IC50 of inhibition of downstream signaling
# Experimental: PANC-1 cells were treated with Compound 006 (DGY-12-161) in the 6-well plate at indicated concentrations for 8 h and 24 h, respectively. The intensities of the bands were quantified in LICOR Odyssey® CLx Imaging System. PANC-1 cells harbor KRAS G12D mutation.
# [3] = system: AGS cells; assay: Anti-proliferative activity in AGS cells (CellTiter-Glo); conditions: Homo sapiens, 72 h, AGS cells (KRAS G12D), three days, read-out: IC50 (cell viability)
# Experimental: AGS cells were treated with KRAS inhibitors at the density of 800 cells/well in 384-well plate for three days. Cell viability was evaluated using CelITiter-Glo® Luminescent Cell Viability Assay. […] AGS cells harbor KRAS G12D mutation. The improved antiproliferation effects of the compounds indicate stronger inhibition towards G12D mutation.
# [4] = system: p-ERK in PC-9 cells (KRAS wild-type); assay: Downstream evaluation in PC-9 cells (p-ERK immunoblot); conditions: Homo sapiens, 8 h and 24 h, read-out: inhibition of the downstream signaling measured by p-ERK
# Experimental: PC-9 cells were treated with Compound 006 (DGY-12-161) in the 6-well plate at indicated concentrations for 8 h and 24 h, respectively. The intensities of the bands were quantified in LICOR Odyssey® CLx Imaging System. PC-9 cells are KRAS wild-type.
Compound,IC50 [1] [nM],IC50 [2] [nM],IC50 [3] [nM],inhibition at 10 µM [4] [%]
"CN(C)C1CN(c2nc(N3[C@@H]4CC[C@H]3CNC4)c3cc(Cl)c(-c4cc(O)cc5ccccc45)c(F)c3n2)C1 [Compound 006, 4-(4-((1R,5S)-3,8-diazabicyclo[3.2.1]octan-8-yl)-6-chloro-2-(3-(dimethylamino)azetidin-1-yl)-8-fluoroquinazolin-7-yl)naphthalen-2-ol]",2200,< 10000,1400,~50
"Oc1cc(-c2c(Cl)cc3c(N4[C@@H]5CC[C@H]4CNC5)nc(OCC45CCCN4CCC5)nc3c2F)c2ccccc2c1 [Compound 001, 4-(4-((1R,5S)-3,8-diazabicyclo[3.2.1]octan-8-yl)-6-chloro-8-fluoro-2-((tetrahydro-1H-pyrrolizin-7a(5H)-yl)methoxy)quinazolin-7-yl)naphthalen-2-ol]",2300,,600,

# Source: patent US20250122210A1, “SMALL MOLECULE INHIBITORS OF KRAS G12D MUTANT” (DANA-FARBER CANCER INSTITUTE, INC., priority 2021, published 2025)
